Data published in PubChem BioAssay (NCI).
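In this assay, cells in 96-well plates receive the compound at five concentrations for 48 hours. Endpoints are linearly interpolated between the surrounding concentrations. At the TGI there is no net growth.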

Experiments:
Assay in all cases: growth of human tumour cells (NCI), 48 h
SF-295 CNS = tested on: SF-295 CNS
SK-OV-3 ovarian = tested on: SK-OV-3 ovarian
MDA-MB-435 = tested on: MDA-MB-435
SR leukemia = tested on: SR leukemia
OVCAR-4 ovarian = tested on: OVCAR-4 ovarian
K-562 leukemia = tested on: K-562 leukemia
SK-MEL-28 melanoma = tested on: SK-MEL-28 melanoma
HS 578T breast = tested on: HS 578T breast
NCI-H460 lung = tested on: NCI-H460 lung
MCF7 breast = tested on: MCF7 breast
IGROV1 ovarian = tested on: IGROV1 ovarian
CCRF-CEM leukemia = tested on: CCRF-CEM leukemia
OVCAR-8 ovarian = tested on: OVCAR-8 ovarian
HCC-2998 colon = tested on: HCC-2998 colon
MALME-3M melanoma = tested on: MALME-3M melanoma
TK-10 renal = tested on: TK-10 renal
A549 NSCLC = tested on: A549 NSCLC
MDA-N = tested on: MDA-N
MDA-MB-231 breast = tested on: MDA-MB-231 breast
ACHN renal = tested on: ACHN renal
NCI/ADR-RES ovarian = tested on: NCI/ADR-RES ovarian
M14 melanoma = tested on: M14 melanoma
LOX IMVI melanoma = tested on: LOX IMVI melanoma
MOLT-4 leukemia = tested on: MOLT-4 leukemia
OVCAR-5 ovarian = tested on: OVCAR-5 ovarian
CAKI-1 renal = tested on: CAKI-1 renal
SN12C renal = tested on: SN12C renal
SK-MEL-2 melanoma = tested on: SK-MEL-2 melanoma
UO-31 renal = tested on: UO-31 renal
HCT-116 colon = tested on: HCT-116 colon
HOP-92 NSCLC = tested on: HOP-92 NSCLC
RXF 393 renal = tested on: RXF 393 renal
786-0 renal = tested on: 786-0 renal
KM12 colon = tested on: KM12 colon
UACC-62 melanoma = tested on: UACC-62 melanoma
NCI-H23 lung = tested on: NCI-H23 lung
SF-539 CNS = tested on: SF-539 CNS
HOP-62 NSCLC = tested on: HOP-62 NSCLC
SNB-75 CNS = tested on: SNB-75 CNS
SF-268 CNS = tested on: SF-268 CNS
OVCAR-3 ovarian = tested on: OVCAR-3 ovarian
RPMI-8226 leukemia = tested on: RPMI-8226 leukemia
HT29 colon = tested on: HT29 colon
SW-620 colon = tested on: SW-620 colon
SNB-19 CNS = tested on: SNB-19 CNS
HL-60(TB) leukemia = tested on: HL-60(TB) leukemia
UACC-257 melanoma = tested on: UACC-257 melanoma
A498 renal = tested on: A498 renal
PC-3 prostate = tested on: PC-3 prostate
U251 CNS = tested on: U251 CNS
BT-549 breast = tested on: BT-549 breast
NCI-H226 lung = tested on: NCI-H226 lung
HCT-15 colon = tested on: HCT-15 colon
NCI-H522 lung = tested on: NCI-H522 lung
EKVX NSCLC = tested on: EKVX NSCLC
COLO 205 colon = tested on: COLO 205 colon
DU-145 prostate = tested on: DU-145 prostate
T-47D breast = tested on: T-47D breast
SK-MEL-5 melanoma = tested on: SK-MEL-5 melanoma

Measured: TGI

CC12CCC(C(=O)O1)C(C)(C)O2 (centres undefined)
> 100 µM: SF-295 CNS | SK-OV-3 ovarian | MDA-MB-435 | SR leukemia | OVCAR-4 ovarian | K-562 leukemia | SK-MEL-28 melanoma | HS 578T breast | NCI-H460 lung | MCF7 breast | IGROV1 ovarian | CCRF-CEM leukemia | OVCAR-8 ovarian | HCC-2998 colon | MALME-3M melanoma | TK-10 renal | A549 NSCLC | MDA-N | MDA-MB-231 breast | ACHN renal | NCI/ADR-RES ovarian | M14 melanoma | LOX IMVI melanoma | MOLT-4 leukemia | OVCAR-5 ovarian | CAKI-1 renal | SN12C renal | SK-MEL-2 melanoma | UO-31 renal | HCT-116 colon | HOP-92 NSCLC | RXF 393 renal | 786-0 renal | KM12 colon | UACC-62 melanoma | NCI-H23 lung | SF-539 CNS | HOP-62 NSCLC | SNB-75 CNS | SF-268 CNS | OVCAR-3 ovarian | RPMI-8226 leukemia | HT29 colon | SW-620 colon | SNB-19 CNS | HL-60(TB) leukemia | UACC-257 melanoma | A498 renal | PC-3 prostate | U251 CNS | BT-549 breast | NCI-H226 lung | HCT-15 colon | NCI-H522 lung | EKVX NSCLC

Cn1c(C(C#N)c2nc(Cl)ncc2Br)nc2ccccc21 (centres undefined)
> 100 µM: SF-295 CNS | SK-OV-3 ovarian | MDA-MB-435 | OVCAR-4 ovarian | SK-MEL-28 melanoma | NCI-H460 lung | IGROV1 ovarian | OVCAR-8 ovarian | COLO 205 colon | DU-145 prostate | MALME-3M melanoma | TK-10 renal | A549 NSCLC | T-47D breast | MDA-N | MDA-MB-231 breast | ACHN renal | NCI/ADR-RES ovarian | M14 melanoma | LOX IMVI melanoma | MOLT-4 leukemia | OVCAR-5 ovarian | CAKI-1 renal | SN12C renal | UO-31 renal | HCT-116 colon | HOP-92 NSCLC | RXF 393 renal | 786-0 renal | KM12 colon | NCI-H23 lung | SF-539 CNS | HOP-62 NSCLC | SNB-75 CNS | SF-268 CNS | OVCAR-3 ovarian | RPMI-8226 leukemia | HT29 colon | SW-620 colon | SNB-19 CNS | UACC-257 melanoma | A498 renal | U251 CNS | BT-549 breast | NCI-H226 lung | HCT-15 colon | NCI-H522 lung | EKVX NSCLC | SK-MEL-5 melanoma
